Our source for the IC50 values is PubChem BioAssay AID1159563 (GlaxoSmithKline (GSK), 2015).

For this test, the system named is HepG2 cytotoxicity. Description: HepG2 cell cytotoxicity, cytotoxicity control (AID 1159563).

pIC50: −log10 of the molar value. Activity calls are given as the source filed them. How the calls were made is not given here.

For `Cc1cc2nc(CN(C)Cc3ncccc3C)[nH]c2cc1C`, the pIC50 (commonly the IC50 on a negative log10 scale, so that one unit is a factor of ten) is 4.40.

On to `Nc1nccc(-c2csc(Nc3ccc(Cl)cc3)n2)n1`, for which the IC50 (commonly the concentration that inhibits the measured activity by half) is > 100 µM (inactive).

As for `CNc1c(C(N)=O)c(-c2ccc3scnc3c2)nn1CC(F)(F)F`, the IC50 was > 100 µM (inactive).

Regarding `COc1cc(Cl)c(C)cc1NC(=O)c1ccc([N+](=O)[O-])s1`, the pIC50 is 4.49.

Take `CC(C)c1cc(C(=O)N2CCCC(c3cc4ncccc4[nH]3)C2)on1` (stereo unspecified): the IC50 is > 100 µM (inactive).

`CCOc1ccc(CN(C)Cc2nc(N)nc(Nc3ccc(C)cc3)n2)cc1`: the pIC50 was 4.49.

As for `O=C(Nc1nc2ccccc2[nH]1)c1c(O)c2cccc3c2n(c1=O)CC3`, the pIC50 was 5.00.

For the molecule `Cc1cc(Nc2cc(C3CC3)[nH]n2)nc(N2CCCC2)n1`, the pIC50 was 4.49.

For `O=C(Nc1nc(-c2ccc(S(=O)(=O)N3CCOCC3)cc2)cs1)c1ccc([N+](=O)[O-])cc1`, the IC50 was > 100 µM (inactive).

Take `Cc1ccccc1OCC(=O)N1CCCN(c2cccnn2)CC1`: the IC50 was > 100 µM (inactive).

For `O=c1[nH]cnc2c([C@@H]3O[C@H](CO)[C@@H](O)[C@H]3O)[nH]nc12`, the IC50 was > 100 µM (inactive).

With `COCc1cc(Nc2cccc(Cl)c2)nc(-c2ccccn2)n1`, the pIC50 is 4.40.

For `Cc1[nH]nc(Nc2ccnc3[nH]ccc23)c1C`, the IC50 is > 100 µM (inactive).

As to `O=C(c1cccc(Nc2ncc(-c3ccc4c(c3)OCO4)cn2)c1)N1CCOCC1`, the IC50 was > 130 µM (inactive).

With `Cc1nn(-c2nc(N)nc(-c3ccccn3)n2)c(N)c1-c1ccccc1`, the pIC50 was 4.20.

Regarding `CC(C)c1cc(Nc2cc(Cc3ccccc3)nc(NC3CCC(O)CC3)n2)n[nH]1` (stereo unspecified), the pIC50 is 4.49.

For `O=c1cc(NCCCNC2CCOc3c(I)cc(Cl)cc32)[nH]c2ccccc12` (stereo unspecified), the pIC50 was 4.20.

Consider `Cn1nc(C(=O)N2CCc3ccccc32)c2c1CCS(=O)(=O)C2`, for which the IC50 was > 100 µM (inactive).

`Cc1cc(C)cc(NS(=O)(=O)c2cc(-c3cc(C)[nH]n3)ccc2C)c1`: the pIC50 was 4.20.

Turning to `Cn1cncc1CN1CCC2(CC1)COC(Cc1ccccc1)C2` (stereo unspecified), the IC50 is > 100 µM (inactive).

`COc1cc(Nc2nccc(Nc3onc(C)c3C)n2)cc(S(=O)(=O)C2CCOCC2)c1`: the pIC50 was 4.49.

Consider `NCc1ccc2c(Cl)cc(Cl)c(O)c2n1`, for which the pIC50 is 4.60.

For `O=C(c1cc2cc(Cl)ccc2[nH]1)N1CCCCC1c1cccnc1` (stereo unspecified), the pIC50 was 4.40.

In the case of `NCC(Cc1ccccc1)NC(=O)c1cnc(-c2c[nH]c3ncccc23)s1` (stereo unspecified), the pIC50 is 4.10.

With `COc1ccc(Nc2nc(-c3ccccn3)cc(N3CCCC(O)C3)n2)cc1` (stereo unspecified), the pIC50 was 4.40.

With `O=S(=O)(c1ccccc1C(F)(F)F)N1CCN(Cc2ccc(-n3ccnc3)cc2)CC1`, the IC50 is > 100 µM (inactive).

In the case of `O=C(Nc1ccc(Br)c(Cl)c1)Nc1ccc2c(c1)OCO2`, the IC50 is > 100 µM (inactive).

On to `COc1ccc(C2CC(c3ccc(NS(C)(=O)=O)cc3)=NN2C(=O)c2cccs2)cc1OC` (stereo unspecified), for which the IC50 was > 100 µM (inactive).

For the molecule `CC(c1ccccn1)N(C)Cc1nc2ccccc2n1C(C)C` (stereo unspecified), the pIC50 is 4.60.

Take `CN1CCC(N(C)c2nccc(N3CCN(C(=O)c4cccc(-c5cccnc5)c4)CC3)n2)CC1`: the pIC50 was 4.40.

For `Nc1cc(-c2ccc3ncnc(N4CCOCC4)c3c2)cnc1N`, the IC50 was > 100 µM (inactive).

Consider `O=C(Nc1ccccc1C(=O)Nc1ccccn1)c1ccco1`, for which the IC50 is > 100 µM (inactive).

`Nc1ncnc2c1ncn2[C@@H]1O[C@H](CO)C[C@H]1O`: the IC50 is > 100 µM (inactive).

On to `O=C(O)[C@H]1C[C@@H]1c1ccc(-c2ccc(CN(CCc3ccccn3)C(=O)C3CCC3)cc2)cc1`, for which the IC50 is > 100 µM (inactive).

`O=C(Nc1nccs1)c1ccccc1Cn1cc([N+](=O)[O-])cn1`: the IC50 was > 100 µM (inactive).

As to `CCOc1cc(NCCCN2CCN(C)CC2)c2ncccc2c1`, the pIC50 is 4.49.
